In patent publication US20100286092A1, “BETA-LACTAMASE INHIBITORS” (priority 2007, published 2010):

Tests used:
Details in all cases: in the presence of a fixed amount (8 μg/mL) of Ceftazidime; CAMHB, 16-20 hours at 37° C.
[1] = test system: K. pneumoniae expressing the Class A carbapenemase KPC-2
Source text: (§1) To determine the ability of test compounds to potentiate the inhibition of the growth of bacterial strains producing beta-lactamase enzymes, classic cell based screening assays were employed. Four bacteria strains producing beta-lactamase enzymes were used: K. pneumoniae expressing the Class A Extended Spectrum Beta-Lactamase (ESBL) CTX-M-15, E. coli expressing the Class A ESBL SHV-5, E. cloacae expressing the Class C P99+, and K. pneumoniae expressing the Class A carbapenemase KPC-2. In order to evaluate the ability of test compounds to inhibit beta-lactamase activity, Applicants used a modification of the broth microdilution assay. The assay was conducted in Cation Adjusted Mueller Hinton Broth (CAMHB, BD #212322, BD Diagnostic Systems, Sparks, Md.). Bacteria strains were grown for 3-5 hours in CAMBH broth. All four strains were grown in presence of 50 μg/mL ampicillin to ensure resistance is maintained. In the meantime, test compounds were diluted in DMSO to a 0.1 mg/mL stock. The compounds were added to a microtiter plate and were diluted in 2-fold serial dilutions in CAMHB in a final concentration range of 8 μg/mL to 0.015 μg/ml. An overlay of CAMHB containing a cephalosporin was added to the compounds at a final static concentration of 8 μg/ml. […] Each of these compound plates are made in quadruplicate, one for each bacteria strain. In addition to the titration of test compounds the MICs of a panel of cephalosporins is also tested to ensure the strains are behaving consistently from test to test. Once the test compound and cephalosporin are added the plates can be inoculated. Inocula are conducted according to CLSI broth microdilution method. After inoculation the plates are incubated for 16-20 hours at 37° C. then the Minimal Inhibitory Concentration (MIC) of the test compound is determined visually.
(§2) Using the methodology described above, examples of the current invention were evaluated for their ability to inhibit the growth of β-lactamase producing bacteria in the presence of a β-lactam antibiotic. […] NT=Not Tested.

[2] = test system: E. coli expressing the Class A ESBL SHV-5; assay type: cell-based
Source text: as §1, §2

[3] = test system: K. pneumoniae expressing the Class A Extended Spectrum Beta-Lactamase (ESBL) CTX-M-15; assay type: cell-based
Source text: as §1, §2

[4] = test system: E. cloacae expressing the Class C P99+; assay type: cell-based
Source text: as §1, §2

## O=C(Cc1cccs1)N[C@@H](Cc1cccc(C(=O)O)c1O)B(O)O [Example 1, (1R)-1-(2-thiophene-2-yl-acetylamino)-2-(2-hydroxy-3-carboxyphenyl)ethyl-1-boronic acid]
[1]
  MIC of example compound, K. pneumoniae KPC-2 + 8 μg/mL CAZ: C (C represents an MIC of <1 μg/mL)
[2]
  MIC of example compound, E. coli SHV-5 + 8 μg/mL CAZ: C (C represents an MIC of <1 μg/mL)
[3]
  MIC of example compound, K. pneumoniae CTX-M-15 + 8 μg/mL CAZ: C (C represents an MIC of <1 μg/mL)

## O=C(O)COc1cccc(CC(=O)N[C@@H](Cc2cccc(C(=O)O)c2O)B(O)O)c1 [Example 7, (1R)-1-[3-(carboxymethoxy)-phenyl]acetylamino-(3-carboxy-2-hydroxy)benzyl-methylboronic acid]
[1]
  MIC of example compound, K. pneumoniae KPC-2 + 8 μg/mL CAZ: C (C represents an MIC of <1 μg/mL)
[2]
  MIC of example compound, E. coli SHV-5 + 8 μg/mL CAZ: C (C represents an MIC of <1 μg/mL)
[3]
  MIC of example compound, K. pneumoniae CTX-M-15 + 8 μg/mL CAZ: C (C represents an MIC of <1 μg/mL)

## O=C(Cc1cc(Br)cs1)N[C@@H](Cc1cccc(C(=O)O)c1O)B(O)O [Example 9, (1R)-1-(2-(4-bromo-thiophen-2-nyl)acetylamino)-2-(2-hydroxy-3-carboxyphenyl)ethyl-1-boronic acid]
[1]
  MIC of example compound, K. pneumoniae KPC-2 + 8 μg/mL CAZ: C (C represents an MIC of <1 μg/mL)
[2]
  MIC of example compound, E. coli SHV-5 + 8 μg/mL CAZ: C (C represents an MIC of <1 μg/mL)
[3]
  MIC of example compound, K. pneumoniae CTX-M-15 + 8 μg/mL CAZ: C (C represents an MIC of <1 μg/mL)

## O=C(N[C@@H](Cc1cccc(C(=O)O)c1O)B(O)O)c1cccs1 [Example 11, (1R)-1-(thiophene-2-carbonyl-amino)-2-(2-hydroxy-3-carboxyphenyl)ethyl-1-boronic acid]
[1]
  MIC of example compound, K. pneumoniae KPC-2 + 8 μg/mL CAZ: C (C represents an MIC of <1 μg/mL)
[4]
  MIC of example compound, E. cloacae P99 AmpC + 8 μg/mL CAZ: C (C represents an MIC of <1 μg/mL)
[3]
  MIC of example compound, K. pneumoniae CTX-M-15 + 8 μg/mL CAZ: C (C represents an MIC of <1 μg/mL)

## O=C(N[C@@H](Cc1cccc(C(=O)O)c1O)B(O)O)c1ccccc1 [Example 13, (1R)-1-Benzoylamino-1-(3-carboxy-2-hydroxy)benzyl-methylboronic acid]
[1]
  MIC of example compound, K. pneumoniae KPC-2 + 8 μg/mL CAZ: C (C represents an MIC of <1 μg/mL)
[4]
  MIC of example compound, E. cloacae P99 AmpC + 8 μg/mL CAZ: C (C represents an MIC of <1 μg/mL)
[3]
  MIC of example compound, K. pneumoniae CTX-M-15 + 8 μg/mL CAZ: C (C represents an MIC of <1 μg/mL)

## CC(C)C(=O)N[C@@H](Cc1cccc(C(=O)O)c1O)B(O)O [Example 14, (1R)-1-Isobutyrylamino-1-(3-carboxy-2-hydroxy)benzyl-methylboronic acid]
[1]
  MIC of example compound, K. pneumoniae KPC-2 + 8 μg/mL CAZ: C (C represents an MIC of <1 μg/mL)
[4]
  MIC of example compound, E. cloacae P99 AmpC + 8 μg/mL CAZ: C (C represents an MIC of <1 μg/mL)
[3]
  MIC of example compound, K. pneumoniae CTX-M-15 + 8 μg/mL CAZ: C (C represents an MIC of <1 μg/mL)

## O=C(O)c1cccc(C[C@H](NC(=O)C2CCCC2)B(O)O)c1O [Example 15, (1R)-1-Cyclopentanecarbonylamino-(3-carboxy-2-hydroxy)benzyl-methylboronic acid]
[1]
  MIC of example compound, K. pneumoniae KPC-2 + 8 μg/mL CAZ: C (C represents an MIC of <1 μg/mL)
[4]
  MIC of example compound, E. cloacae P99 AmpC + 8 μg/mL CAZ: C (C represents an MIC of <1 μg/mL)
[3]
  MIC of example compound, K. pneumoniae CTX-M-15 + 8 μg/mL CAZ: C (C represents an MIC of <1 μg/mL)

## CCC(=O)N[C@@H](Cc1cccc(C(=O)O)c1O)B(O)O [Example 16, (1R)-1-(propionylamino)-2-(2-hydroxy-3-carboxyphenyl)ethyl-1-boronic acid]
[1]
  MIC of example compound, K. pneumoniae KPC-2 + 8 μg/mL CAZ: C (C represents an MIC of <1 μg/mL)
[4]
  MIC of example compound, E. cloacae P99 AmpC + 8 μg/mL CAZ: C (C represents an MIC of <1 μg/mL)
[3]
  MIC of example compound, K. pneumoniae CTX-M-15 + 8 μg/mL CAZ: C (C represents an MIC of <1 μg/mL)

## O=C(CO)N[C@@H](Cc1cccc(C(=O)O)c1O)B(O)O [Example 19, (1R)-1-Hydroxyacetylamino-1-(3-carboxy-2-hydroxy)benzyl-methyl boronic acid]
[1]
  MIC of example compound, K. pneumoniae KPC-2 + 8 μg/mL CAZ: C (C represents an MIC of <1 μg/mL)
[2]
  MIC of example compound, E. coli SHV-5 + 8 μg/mL CAZ: A (A represents an MIC>8 μg/mL)
[3]
  MIC of example compound, K. pneumoniae CTX-M-15 + 8 μg/mL CAZ: C (C represents an MIC of <1 μg/mL)

## O=C(O)c1cccc(C[C@H](NC(=O)C2CC2)B(O)O)c1O [Example 20, (1R)-1-Cyclopropanecarbonyl-amino-1-(3-carboxy-2-hydroxy)benzyl-methylboronic acid]
[1]
  MIC of example compound, K. pneumoniae KPC-2 + 8 μg/mL CAZ: C (C represents an MIC of <1 μg/mL)
[4]
  MIC of example compound, E. cloacae P99 AmpC + 8 μg/mL CAZ: C (C represents an MIC of <1 μg/mL)
[3]
  MIC of example compound, K. pneumoniae CTX-M-15 + 8 μg/mL CAZ: C (C represents an MIC of <1 μg/mL)

## CCCCCC(=O)N[C@@H](Cc1cccc(C(=O)O)c1O)B(O)O [Example 21, (1R)-1-Hexanoylamino-(3-carboxy-2-hydroxy)benzyl-methylboronic acid]
[1]
  MIC of example compound, K. pneumoniae KPC-2 + 8 μg/mL CAZ: C (C represents an MIC of <1 μg/mL)
[2]
  MIC of example compound, E. coli SHV-5 + 8 μg/mL CAZ: C (C represents an MIC of <1 μg/mL)
[3]
  MIC of example compound, K. pneumoniae CTX-M-15 + 8 μg/mL CAZ: C (C represents an MIC of <1 μg/mL)

## O=C(N[C@@H](Cc1cccc(C(=O)O)c1O)B(O)O)c1ccc(F)cc1 [Example 26, (1R)-1-(4-Fluorobenzoylamino)-(3-carboxy-2-hydroxy)benzyl-methylboronic acid]
[1]
  MIC of example compound, K. pneumoniae KPC-2 + 8 μg/mL CAZ: C (C represents an MIC of <1 μg/mL)
[4]
  MIC of example compound, E. cloacae P99 AmpC + 8 μg/mL CAZ: C (C represents an MIC of <1 μg/mL)
[3]
  MIC of example compound, K. pneumoniae CTX-M-15 + 8 μg/mL CAZ: C (C represents an MIC of <1 μg/mL)

## COc1cccc(C(=O)N[C@@H](Cc2cccc(C(=O)O)c2O)B(O)O)c1 [Example 29, (1R)-1-(3-methoxybenzoylamino)-2-(2-hydroxy-3-carboxyphenyl)ethyl-1-boronic acid]
[1]
  MIC of example compound, K. pneumoniae KPC-2 + 8 μg/mL CAZ: C (C represents an MIC of <1 μg/mL)
[2]
  MIC of example compound, E. coli SHV-5 + 8 μg/mL CAZ: C (C represents an MIC of <1 μg/mL)
[3]
  MIC of example compound, K. pneumoniae CTX-M-15 + 8 μg/mL CAZ: C (C represents an MIC of <1 μg/mL)

## COc1ccccc1C(=O)N[C@@H](Cc1cccc(C(=O)O)c1O)B(O)O [Example 34, (1R)-1-(2-methoxybenzoylamino)-2-(2-hydroxy-3-carboxyphenyl)ethyl-1-boronic acid]
[1]
  MIC of example compound, K. pneumoniae KPC-2 + 8 μg/mL CAZ: C (C represents an MIC of <1 μg/mL)
[2]
  MIC of example compound, E. coli SHV-5 + 8 μg/mL CAZ: A (A represents an MIC>8 μg/mL)

## O=C(N[C@@H](Cc1cccc(C(=O)O)c1O)B(O)O)c1ccc(O)cc1 [Example 36, (1R)-1-(4-Hydroxybenzoyl)-amino-1-(3-carboxy-2-hydroxy)benzyl-methylboronic acid]
[1]
  MIC of example compound, K. pneumoniae KPC-2 + 8 μg/mL CAZ: C (C represents an MIC of <1 μg/mL)
[4]
  MIC of example compound, E. cloacae P99 AmpC + 8 μg/mL CAZ: C (C represents an MIC of <1 μg/mL)
[3]
  MIC of example compound, K. pneumoniae CTX-M-15 + 8 μg/mL CAZ: C (C represents an MIC of <1 μg/mL)

## CC(=O)NCC(=O)N[C@@H](Cc1cccc(C(=O)O)c1O)B(O)O [Example 37, (1R)-1-(2-acetamidoacetylamino)-2-(2-hydroxy-3-carboxyphenyl)ethyl-1-boronic acid]
[1]
  MIC of example compound, K. pneumoniae KPC-2 + 8 μg/mL CAZ: C (C represents an MIC of <1 μg/mL)
[4]
  MIC of example compound, E. cloacae P99 AmpC + 8 μg/mL CAZ: C (C represents an MIC of <1 μg/mL)
[3]
  MIC of example compound, K. pneumoniae CTX-M-15 + 8 μg/mL CAZ: C (C represents an MIC of <1 μg/mL)

## Cn1nc(-c2ccccc2)cc1C(=O)N[C@@H](Cc1cccc(C(=O)O)c1O)B(O)O [Example 44, (1R)-1-(1-methyl-3-phenyl-1H-pyrazole-5-carbonyl-amino)-2-(2-hydroxy-3-carboxyphenyl)ethyl-1-boronic acid]
[2]
  MIC of example compound, E. coli SHV-5 + 8 μg/mL CAZ: A (A represents an MIC>8 μg/mL)
[3]
  MIC of example compound, K. pneumoniae CTX-M-15 + 8 μg/mL CAZ: A (A represents an MIC>8 μg/mL)

## O=C(N[C@@H](Cc1cccc(C(=O)O)c1O)B(O)O)c1ccno1 [Example 46, (1R)-1-(isoxazole-5-carbonyl-amino)-2-(2-hydroxy-3-carboxyphenyl)ethyl-1-boronic acid]
[1]
  MIC of example compound, K. pneumoniae KPC-2 + 8 μg/mL CAZ: C (C represents an MIC of <1 μg/mL)
[4]
  MIC of example compound, E. cloacae P99 AmpC + 8 μg/mL CAZ: C (C represents an MIC of <1 μg/mL)
[3]
  MIC of example compound, K. pneumoniae CTX-M-15 + 8 μg/mL CAZ: C (C represents an MIC of <1 μg/mL)

## Cc1nc(-c2cccc(C(=O)N[C@@H](Cc3cccc(C(=O)O)c3O)B(O)O)c2)no1 [Example 47, (1R)-1-[3-(5-methyl-[1,2,4]oxadiazol-3-yl)-benzoyl]-amino-1-(3-carboxy-2-hydroxy)benzyl-methylboronic acid]
[2]
  MIC of example compound, E. coli SHV-5 + 8 μg/mL CAZ: A (A represents an MIC>8 μg/mL)
[3]
  MIC of example compound, K. pneumoniae CTX-M-15 + 8 μg/mL CAZ: A (A represents an MIC>8 μg/mL)

## O=C(N[C@@H](Cc1cccc(C(=O)O)c1O)B(O)O)c1ccc(N2CCOCC2)nc1 [Example 48, (1R)-1-(6-morpholin-4-yl-pyridine-3-carbonyl)-amino-1-(3-carboxy-2-hydroxy)benzyl-methylboronic acid]
[1]
  MIC of example compound, K. pneumoniae KPC-2 + 8 μg/mL CAZ: C (C represents an MIC of <1 μg/mL)
[2]
  MIC of example compound, E. coli SHV-5 + 8 μg/mL CAZ: A (A represents an MIC>8 μg/mL)
